Results: US10167297B2, “Substituted pyridine compounds having herbicidal activity” (BASF SE, priority 2014, dated 2019)

Tests used:
Type in all cases: in vivo
Zea mays [1] = experiment: greenhouse post-emergence herbicidal activity on crop plant corn (use examples); conditions: ZEAMX (corn, crop plant), scale 0 to 100; for plant injury at 125 g/ha: 0.125 kg/ha; for plant injury at 250 g/ha: 0.25 kg/ha; for plant injury at 31 g/ha: 0.031 kg/ha
Excerpt: (§1) The seeds of the test plants were sown separately for each species. For the pre-emergence treatment, the active ingredients, which had been suspended or emulsified in water, were applied directly after sowing by means of finely distributing nozzles. The containers were irrigated gently to promote germination and growth and subsequently covered with transparent plastic hoods until the plants had rooted. This cover caused uniform germination of the test plants, unless this had been impaired by the active ingredients. For the post-emergence treatment, the test plants were first grown to a height of 3 to 15 cm, depending on the plant habit, and only then treated with the active ingredients which had been suspended or emulsified in water. For this purpose, the test plants were either sown directly and grown in the same containers, or they were first grown separately as seedlings and transplanted into the test containers a few days prior to treatment. Depending on the species, the plants were kept at 10-25° C. or 20-35° C., respectively. The test period extended over 2 to 4 weeks. During this time, the plants were tended, and their response to the individual treatments was evaluated. Evaluation was carried out using a scale from 0 to 100. 100 means no emergence of the plants, or complete destruction of at least the aerial moieties, and 0 means no damage, or normal course of growth. A good herbicidal activity is given at values of at least 70 and a very good herbicidal activity is given at values of at least 85. The plants used in the greenhouse experiments were of the following species: [table]

Echinocloa crus-galli [2] = experiment: greenhouse post-emergence herbicidal activity (use examples); conditions: Echinochloa crus-galli, ECHCG, scale 0 to 100; for pest or weed control at 125 g/ha: 0.125 kg/ha; for pest or weed control at 250 g/ha: 0.25 kg/ha; for pest or weed control at 31 g/ha: 0.031 kg/ha
Excerpt: as §1

Setaria viridis [3] = experiment: as above; conditions: SETVI, scale 0 to 100
Excerpt: as §1

Amaranthus retroflexus = experiment: as above; conditions: AMARE, scale 0 to 100
Excerpt: as §1

Chenopodium album = experiment: as above; conditions: CHEAL, scale 0 to 100
Excerpt: as §1

Zea mays [4] = experiment: comparative greenhouse post-emergence herbicidal activity on crop plant corn; conditions: ZEAMX (corn, crop plant), 20 days, scale 0 to 100
Experimental: (§2) The herbicidal activity of the compounds I-5 (N-[2,6-dichloro-3-(8-hydroxy-6,6-dioxo-5H-thiopyrano[4,3-b]pyridin-7-yl)phenyl]-N-methyl-acetamide) and 1-19 (Methyl N-[2,6-dichloro-3-(8-hydroxy-5,5-dimethyl-6,6-dioxo-thiopyrano[4,3-b]pyridin-7-yl)phenyl]-N-methyl-carbamate) according to this invention was tested in comparison with compound I-5 disclosed on page 147 of WO 2012/084755 A1 (not of the invention). These comparative experiments were performed in greenhouse by using the following procedure:
(§3) The culture containers used were plastic flowerpots containing loamy sand with approximately 3.0% of humus as the substrate. The seeds of the test plants were sown separately for each species.
(§4) For the post-emergence treatment, the test plants were first grown to a height of 3 to 15 cm, depending on the plant habit, and only then treated with the active ingredients which had been suspended or emulsified in water using a volume of 375 I/ha and 1% of an Adjuvant. For this purpose, the test plants were either sown directly and grown in the same containers, or they were first grown separately as seedlings and transplanted into the test containers a few days prior to treatment.
(§5) Depending on the species, the plants were kept at 10-25° C. (cold season grasses) or 20-35° C. (warm season grasses), respectively.
(§6) The test period extended over 20 days. During this time, the plants were tended, and their response to the individual treatments was evaluated.
(§7) Evaluation was carried out using a scale from 0 to 100. 100 means complete destruction of at least the aerial moieties, and 0 means no damage, or normal course of growth. A good herbicidal activity is given at values of at least 70 and a very good herbicidal activity is given at values of at least 85.
(§8) The plants used in the greenhouse experiments were of the following species:
(§9) The application rates in the post-emergence treatment were 0.1, 0.05 and 0.025 kg/ha, respectively.

Echinocloa crus-galli [5] = experiment: comparative greenhouse post-emergence herbicidal activity; conditions: ECHCG, 20 days, scale 0 to 100
Experimental: as §2, §3, §4, §5, §6, §7, §8, §9

Digitaria sanguine = experiment: as above; conditions: DIGSA, 20 days, scale 0 to 100
Experimental: as §2, §3, §4, §5, §6, §7, §8, §9

Setaria viridis [6] = experiment: as above; conditions: SETVI, 20 days, scale 0 to 100
Experimental: as §2, §3, §4, §5, §6, §7, §8, §9

Ambrosia artimisifolio = experiment: as above; conditions: AMBEL, 20 days, scale 0 to 100
Experimental: as §2, §3, §4, §5, §6, §7, §8, §9

Bromus steliris = experiment: as above; conditions: BROST, 20 days, scale 0 to 100
Experimental: as §2, §3, §4, §5, §6, §7, §8, §9

Abuthilon avicennae = experiment: as above; conditions: ABUTH, 20 days, scale 0 to 100
Experimental: as §2, §3, §4, §5, §6, §7, §8, §9

Lolium Multiflori = experiment: as above; conditions: LOLMU, 20 days, scale 0 to 100
Experimental: as §2, §3, §4, §5, §6, §7, §8, §9

Polygonum convolvulus = experiment: as above; conditions: POLCO, 20 days, scale 0 to 100
Experimental: as §2, §3, §4, §5, §6, §7, §8, §9

Avena Fatua = experiment: as above; conditions: AVEFA, 20 days, scale 0 to 100
Experimental: as §2, §3, §4, §5, §6, §7, §8, §9

## CC(=O)N(C)c1c(Cl)ccc(C2=C(OC(=O)C(C)(C)C)c3ncc(F)cc3C(C)(C)S2(=O)=O)c1Cl [Compound I-13, [7-[3-[acetyl(methyl)amino]-2,4-dichloro-phenyl]-3-fluoro-5,5-dimethyl-6,6-dioxo-thiopyrano[4,3-b]pyridin-8-yl] 2,2-dimethylpropanoate]
Zea mays [1]
  plant injury at 125 g/ha: 15%
Echinocloa crus-galli [2]
  pest or weed control at 125 g/ha: 95%
Setaria viridis [3]; 0.125 kg/ha
  Herbicidal activity: 85
Amaranthus retroflexus; 0.125 kg/ha
  Herbicidal activity: 90

## CC(=O)N(C)c1c(Cl)ccc(C2=C(O)c3ncccc3C(C)(C)S2(=O)=O)c1Cl [Compound I-6, N-[2,6-dichloro-3-(8-hydroxy-5,5-dimethyl-6,6-dioxo-thiopyrano[4,3-b]pyridin-7-yl)phenyl]-N-methyl-acetamide]
Zea mays [1]; 0.060 kg/ha
  plant injury at 60 g/ha: 30%
Echinocloa crus-galli [2]; 0.060 kg/ha
  pest or weed control at 60 g/ha: 90%
Setaria viridis [3]; 0.060 kg/ha
  Herbicidal activity: 90

## CC(=O)N(C)c1c(Cl)ccc(C2=C(OC(=O)C(C)(C)C)c3ncccc3C(C)(C)S2(=O)=O)c1Cl [Compound I-8, [7-[3-[acetyl(methyl)amino]-2,4-dichloro-phenyl]-5,5-dimethyl-6,6-dioxo-thiopyrano[4,3-b]pyridin-8-yl] 2,2-dimethylpropanoate]
Zea mays [1]
  plant injury at 125 g/ha: 30%
Echinocloa crus-galli [2]
  pest or weed control at 125 g/ha: 98%
Amaranthus retroflexus; 0.125 kg/ha
  Herbicidal activity: 98
Chenopodium album; 0.125 kg/ha
  Herbicidal activity: 100

## CC(=O)N(C)c1c(Cl)ccc(C2=C(OC(=O)C(C)(C)C)c3ncccc3CS2(=O)=O)c1Cl [Compound I-7, [7-[3-[acetyl(methyl)amino]-2,4-dichloro-phenyl]-6,6-dioxo-5H-thiopyrano[4,3-b]pyridin-8-yl] 2,2-dimethylpropanoate]
Zea mays [1]
  plant injury at 250 g/ha: 20%
Echinocloa crus-galli [2]
  pest or weed control at 250 g/ha: 98%
Amaranthus retroflexus; 0.25 kg/ha
  Herbicidal activity: 95
Chenopodium album; 0.25 kg/ha
  Herbicidal activity: 100

## O=C1CCCN1c1c(Cl)ccc(C2=C(O)c3ncccc3CS2(=O)=O)c1Cl [Compound I-1, 1-[2,6-dichloro-3-(8-hydroxy-6,6-dioxo-5H-thiopyrano[4,3-b]pyridin-7-yl)phenyl]pyrrolidin-2-one]
Zea mays [1]
  plant injury at 250 g/ha: 0%
Echinocloa crus-galli [2]
  pest or weed control at 250 g/ha: 100%
Amaranthus retroflexus; 0.25 kg/ha
  Herbicidal activity: 100
Chenopodium album; 0.25 kg/ha
  Herbicidal activity: 100

## CC(=O)N(C)c1c(Cl)ccc(C2=C(O)c3ncc(F)cc3CS2(=O)=O)c1Cl [Compound I-11, N-[2,6-dichloro-3-(3-fluoro-8-hydroxy-6,6-dioxo-5H-thiopyrano[4,3-b]pyridin-7-yl)phenyl]-N-methyl-acetamide]
Zea mays [1]
  plant injury at 31 g/ha: 15%
Echinocloa crus-galli [2]
  pest or weed control at 31 g/ha: 90%
Setaria viridis [3]; 0.031 kg/ha
  Herbicidal activity: 90
Chenopodium album; 0.031 kg/ha
  Herbicidal activity: 90

## CC(=O)N(C)c1c(Cl)ccc(C2=C(O)c3ncc(F)cc3C(C)(C)S2(=O)=O)c1Cl [Compound I-14, N-[2,6-dichloro-3-(3-fluoro-8-hydroxy-5,5-dimethyl-6,6-dioxo-thiopyrano[4,3-b]pyridin-7-yl)phenyl]-N-methyl-acetamide]
Zea mays [1]
  plant injury at 125 g/ha: 30%
Echinocloa crus-galli [2]
  pest or weed control at 125 g/ha: 98%
Setaria viridis [3]; 0.125 kg/ha
  Herbicidal activity: 100
Amaranthus retroflexus; 0.125 kg/ha
  Herbicidal activity: 98

## CC(=O)N(C)c1c(Cl)ccc(C2=C(OC(=O)C(C)(C)C)c3ncc(F)cc3CS2(=O)=O)c1Cl [Compound I-12, [7-[3-[acetyl(methyl)amino]-2,4-dichloro-phenyl]-3-fluoro-6,6-dioxo-5H-thiopyrano[4,3-b]pyridin-8-yl] 2,2-dimethylpropanoate]
Zea mays [1]
  plant injury at 31 g/ha: 15%
Echinocloa crus-galli [2]
  pest or weed control at 31 g/ha: 85%
Setaria viridis [3]; 0.031 kg/ha
  Herbicidal activity: 75
Chenopodium album; 0.031 kg/ha
  Herbicidal activity: 90

## CC(=O)N(C)c1c(Cl)ccc(C2=C(O)c3ncccc3CS2(=O)=O)c1Cl [Compound I-5, N-[2,6-dichloro-3-(8-hydroxy-6,6-dioxo-5H-thiopyrano[4,3-b]pyridin-7-yl)phenyl]-N-methyl-acetamide]
Zea mays [1]
  plant injury at 125 g/ha: 10%
Zea mays [4]; 0.025 kg/ha
  Herbicidal activity: 15
Zea mays [4]; 0.05 kg/ha
  Herbicidal activity: 45
Echinocloa crus-galli [2]
  pest or weed control at 125 g/ha: 95%
Amaranthus retroflexus; 0.125 kg/ha
  Herbicidal activity: 98
Chenopodium album; 0.125 kg/ha
  Herbicidal activity: 98
Echinocloa crus-galli [5]; 0.025 kg/ha
  Herbicidal activity: 90
Echinocloa crus-galli [5]; 0.05 kg/ha
  Herbicidal activity: 100
Echinocloa crus-galli [5]; 0.1 kg/ha
  Herbicidal activity: 100
Digitaria sanguine; 0.025 kg/ha
  Herbicidal activity: 90
Digitaria sanguine; 0.05 kg/ha
  Herbicidal activity: 95
Digitaria sanguine; 0.1 kg/ha
  Herbicidal activity: 100
Setaria viridis [6]; 0.025 kg/ha
  Herbicidal activity: 90
Setaria viridis [6]; 0.05 kg/ha
  Herbicidal activity: 90
Setaria viridis [6]; 0.1 kg/ha
  Herbicidal activity: 90
Ambrosia artimisifolio; 0.025 kg/ha
  Herbicidal activity: 90
Ambrosia artimisifolio; 0.05 kg/ha
  Herbicidal activity: 100
Ambrosia artimisifolio; 0.1 kg/ha
  Herbicidal activity: 95
Bromus steliris; 0.025 kg/ha
  Herbicidal activity: 98
Bromus steliris; 0.05 kg/ha
  Herbicidal activity: 98
Bromus steliris; 0.1 kg/ha
  Herbicidal activity: 98
Abuthilon avicennae; 0.025 kg/ha
  Herbicidal activity: 70
Abuthilon avicennae; 0.05 kg/ha
  Herbicidal activity: 80
Abuthilon avicennae; 0.1 kg/ha
  Herbicidal activity: 90
Lolium Multiflori; 0.025 kg/ha
  Herbicidal activity: 25
Lolium Multiflori; 0.05 kg/ha
  Herbicidal activity: 55
Lolium Multiflori; 0.1 kg/ha
  Herbicidal activity: 80
Polygonum convolvulus; 0.025 kg/ha
  Herbicidal activity: 35
Polygonum convolvulus; 0.05 kg/ha
  Herbicidal activity: 45
Polygonum convolvulus; 0.1 kg/ha
  Herbicidal activity: 80
Avena Fatua; 0.025 kg/ha
  Herbicidal activity: 55
Avena Fatua; 0.05 kg/ha
  Herbicidal activity: 85
Avena Fatua; 0.1 kg/ha
  Herbicidal activity: 90
